Source: PubChem BioAssay AID1918954 (Molecular Pharmacology Branch, DTP, NCI, 2023)

Test system: MDA-MB-468 complex spheroids with HUVEC/MSC, viability
Experiment: Anticancer human tumor MDA-MB-468 cell line growth inhibition;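 note: spheroids exposed to agents for seven days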;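 for viability, T/C: 100% = DMSO vehicle control viability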
Settings: for IC50: curve of first compound; for viability, T/C: stronger effect = lower value
How it was run: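 Multicellular complex spheroids of tumor cells with human endothelial cells (HUVEC) and mesenchymal stem cells; the LSD1 inhibitor iadademstat was combined with standard-of-care or investigational agents. Top concentration at or near clinical Cmax, half-log dilutions; final DMSO ≤0.25%.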

[1] = second compound 0.1 µM, first compound 0.00949 µM
[2] = second compound 0.1 µM, first compound 0.03 µM
[3] = second compound 0.1 µM, first compound 0.0949 µM
[4] = second compound 0.1 µM, first compound 0.3 µM
[5] = second compound 0.1 µM, first compound 0.949 µM
[6] = second compound 0.1 µM, first compound 3 µM
[7] = second compound 0.316 µM, first compound 0.00949 µM
[8] = second compound 0.316 µM, first compound 0.03 µM
[9] = second compound 0.316 µM, first compound 0.0949 µM
[10] = second compound 0.316 µM, first compound 0.3 µM
[11] = second compound 0.316 µM, first compound 0.949 µM
[12] = second compound 0.316 µM, first compound 3 µM
[13] = second compound 1 µM, first compound 0.00949 µM
[14] = second compound 1 µM, first compound 0.03 µM
[15] = second compound 1 µM, first compound 0.0949 µM
[16] = second compound 1 µM, first compound 0.3 µM
[17] = second compound 1 µM, first compound 0.949 µM
[18] = second compound 1 µM, first compound 3 µM
[19] = second compound 3.16 µM, first compound 0.00949 µM
[20] = second compound 3.16 µM, first compound 0.03 µM
[21] = second compound 3.16 µM, first compound 0.0949 µM
[22] = second compound 3.16 µM, first compound 0.3 µM
[23] = second compound 3.16 µM, first compound 0.949 µM
[24] = second compound 3.16 µM, first compound 3 µM
[25] = second compound 10 µM, first compound 0.00949 µM
[26] = second compound 10 µM, first compound 0.03 µM
[27] = second compound 10 µM, first compound 0.0949 µM
[28] = second compound 10 µM, first compound 0.3 µM
[29] = second compound 10 µM, first compound 0.949 µM
[30] = second compound 10 µM, first compound 3 µM

Q: For `Nc1ccccc1NC(=O)c1ccc(CNC(=O)OCc2cccnc2)cc1` + NC1CC1c1ccc(-c2cccc(O)c2)cc1, which IC50 (second compound 0.1 µM) is on record?
A: 66.3 nM

Q: And the IC50 (second compound 0.316 µM)?
A: 61.8 nM

Q: What about the IC50 (second compound 1 µM) of the same compound?
A: 56.8 nM

Q: And the IC50 (second compound 3.16 µM)?
A: 60.5 nM

Q: And the IC50 (second compound 10 µM)?
A: 48.2 nM

Q: What about the viability, T/C [1] of the same compound?
A: 101%

Q: What about the viability, T/C [2] of the same compound?
A: 90.5%

Q: What about the viability, T/C [3] of the same compound?
A: 31.8%

Q: And the viability, T/C [4]?
A: 2.33%

Q: And the viability, T/C [5]?
A: 0.21%

Q: And the viability, T/C [6]?
A: 0.17%

Q: What about the viability, T/C [7] of the same compound?
A: 90.7%

Q: What about the viability, T/C [8] of the same compound?
A: 86.1%

Q: What about the viability, T/C [9] of the same compound?
A: 28.6%

Q: And the viability, T/C [10]?
A: 2.63%

Q: What about the viability, T/C [11] of the same compound?
A: 0.2%

Q: What about the viability, T/C [12] of the same compound?
A: 0.15%

Q: What about the viability, T/C [13] of the same compound?
A: 108%

Q: What about the viability, T/C [14] of the same compound?
A: 78.6%

Q: What about the viability, T/C [15] of the same compound?
A: 27.5%

Q: What about the viability, T/C [16] of the same compound?
A: 2.4%

Q: And the viability, T/C [17]?
A: 0.19%

Q: And the viability, T/C [18]?
A: 0.13%

Q: What about the viability, T/C [19] of the same compound?
A: 92%

Q: What about the viability, T/C [20] of the same compound?
A: 88%

Q: And the viability, T/C [21]?
A: 25.7%

Q: What about the viability, T/C [22] of the same compound?
A: 2.56%

Q: And the viability, T/C [23]?
A: 0.16%

Q: What about the viability, T/C [24] of the same compound?
A: 0.14%

Q: What about the viability, T/C [25] of the same compound?
A: 72.1%

Q: What about the viability, T/C [26] of the same compound?
A: 68.1%

Q: What about the viability, T/C [27] of the same compound?
A: 24.5%

Q: And the viability, T/C [28]?
A: 2.72%

Q: And the viability, T/C [29]?
A: 0.24%

Q: And the viability, T/C [30]?
A: 0.2%

Q: What does the source list for `CCN(c1cc(-c2ccc(CN3CCOCC3)cc2)cc(C(=O)NCc2c(C)cc(C)[nH]c2=O)c1C)C1CCOCC1` + NC1CC1c1ccc(-c2cccc(O)c2)cc1?
A: IC50 (second compound 0.1 µM): 219 nM; IC50 (second compound 0.316 µM): 214 nM; IC50 (second compound 1 µM): 171 nM; IC50 (second compound 3.16 µM): 171 nM; IC50 (second compound 10 µM): 69.1 nM; viability, T/C [1]: 98.8%; viability, T/C [2]: 89.1%; viability, T/C [3]: 64.3%; viability, T/C [4]: 42.8%; viability, T/C [5]: 34.9%; viability, T/C [6]: 23%; viability, T/C [7]: 90%; viability, T/C [8]: 98.7%; viability, T/C [9]: 62.1%; viability, T/C [10]: 46.3%; viability, T/C [11]: 33.7%; viability, T/C [12]: 25.8%; viability, T/C [13]: 82.3%; viability, T/C [14]: 79%; viability, T/C [15]: 57.2%; viability, T/C [16]: 41.7%; viability, T/C [17]: 28.6%; viability, T/C [18]: 22.3%; viability, T/C [19]: 80%; viability, T/C [20]: 86.1%; viability, T/C [21]: 61.8%; viability, T/C [22]: 37.5%; viability, T/C [23]: 29.3%; viability, T/C [24]: 22.1%; viability, T/C [25]: 76.6%; viability, T/C [26]: 60.4%; viability, T/C [27]: 46.5%; viability, T/C [28]: 33.7%; viability, T/C [29]: 29%; viability, T/C [30]: 22.3%

Q: How did the IC50 (second compound 0.1 µM) turn out when `COc1ccc([C@@H](O)c2cc(-c3ncnc4cc(N5CCOCC5)ccc34)c(F)cc2Cl)nn1` + NC1CC1c1ccc(-c2cccc(O)c2)cc1 was run?
A: 878 nM

Q: What about the IC50 (second compound 0.316 µM) of the same compound?
A: 876 nM

Q: And the IC50 (second compound 1 µM)?
A: 720 nM

Q: And the IC50 (second compound 3.16 µM)?
A: 701 nM

Q: And the IC50 (second compound 10 µM)?
A: 228 nM

Q: What about the viability, T/C (second compound 0.1 µM, first compound 0.0316 µM) of the same compound?
A: 113%

Q: And the viability, T/C (second compound 0.1 µM, first compound 0.1 µM)?
A: 103%

Q: What about the viability, T/C (second compound 0.1 µM, first compound 0.316 µM) of the same compound?
A: 69.1%

Q: What about the viability, T/C (second compound 0.1 µM, first compound 1 µM) of the same compound?
A: 47.4%

Q: And the viability, T/C (second compound 0.1 µM, first compound 3.16 µM)?
A: 26.1%

Q: What about the viability, T/C (second compound 0.1 µM, first compound 10 µM) of the same compound?
A: 6.17%

Q: What about the viability, T/C (second compound 0.316 µM, first compound 0.0316 µM) of the same compound?
A: 107%

Q: What about the viability, T/C (second compound 0.316 µM, first compound 0.1 µM) of the same compound?
A: 82.3%

Q: What about the viability, T/C (second compound 0.316 µM, first compound 0.316 µM) of the same compound?
A: 69.8%

Q: What about the viability, T/C (second compound 0.316 µM, first compound 1 µM) of the same compound?
A: 52.8%

Q: And the viability, T/C (second compound 0.316 µM, first compound 3.16 µM)?
A: 25.9%

Q: And the viability, T/C (second compound 0.316 µM, first compound 10 µM)?
A: 5.99%

Q: What about the viability, T/C (second compound 1 µM, first compound 0.0316 µM) of the same compound?
A: 109%

Q: And the viability, T/C (second compound 1 µM, first compound 0.1 µM)?
A: 109%

Q: What about the viability, T/C (second compound 1 µM, first compound 0.316 µM) of the same compound?
A: 71.9%

Q: And the viability, T/C (second compound 1 µM, first compound 1 µM)?
A: 39.6%

Q: What about the viability, T/C (second compound 1 µM, first compound 3.16 µM) of the same compound?
A: 21%

Q: What about the viability, T/C (second compound 1 µM, first compound 10 µM) of the same compound?
A: 5.38%

Q: And the viability, T/C (second compound 3.16 µM, first compound 0.0316 µM)?
A: 102%

Q: And the viability, T/C (second compound 3.16 µM, first compound 0.1 µM)?
A: 87.8%

Q: And the viability, T/C (second compound 3.16 µM, first compound 0.316 µM)?
A: 73.4%

Q: And the viability, T/C (second compound 3.16 µM, first compound 1 µM)?
A: 37.2%

Q: What about the viability, T/C (second compound 3.16 µM, first compound 3.16 µM) of the same compound?
A: 21.5%

Q: And the viability, T/C (second compound 3.16 µM, first compound 10 µM)?
A: 4.59%

Q: And the viability, T/C (second compound 10 µM, first compound 0.0316 µM)?
A: 69.2%

Q: What about the viability, T/C (second compound 10 µM, first compound 0.1 µM) of the same compound?
A: 59.8%

Q: And the viability, T/C (second compound 10 µM, first compound 0.316 µM)?
A: 45.1%

Q: What about the viability, T/C (second compound 10 µM, first compound 1 µM) of the same compound?
A: 33.2%

Q: And the viability, T/C (second compound 10 µM, first compound 3.16 µM)?
A: 20.1%

Q: And the viability, T/C (second compound 10 µM, first compound 10 µM)?
A: 2.86%
